These results are taken from patent US10624905B2, “Corticosteroids for the treatment of joint pain” (Flexion Therapeutics, Inc., priority 2013, dated 2020).

Converted amounts (≈) assume the structure as drawn. “And” between values parts separate entries of the source, which are not always exact repeats. Identical values can stand only once. Like-named read-outs stand apart in the source and are kept apart here.

The IC50 is the concentration that gives 50% inhibition.

For data set [1] the following is noted: cited from earlier work.
A further data set deals with HPA axis. To be noted: 20 mg intra-articular injection; day 3; transient; cited from earlier work.
The test system of data set [2] is endogenous cortisol production. Description: Steady-state doses and plasma concentrations for target suppression of endogenous cortisol production. Set-up: species or system human. As to conditions: steady-state HPA axis suppression. Here is the method:
In this regard, it has been determined that standard doses of familiar corticosteroids, when examined from the viewpoint of steady-state HPA axis suppression (i.e., after desensitization has occurred), provide clinically useful benchmarks. For example, while oral prednisolone given at 20 mg QD produces a 73% cortisol suppression, even 5 mg QD (considered a “low dose”) is associated with a 40% suppression of endogenous cortisol production. […]
As a result of these clinical findings, the dose range to achieve clinically useful analgesia, with minimal or controlled modulation of the HPA axis, at steady state concentrations of various corticosteroids has been determined (Table 2). […]
In addition, with these continuous daily doses of intra-articular corticosteroids, it is possible to determine the related systemic plasma level concentrations (Table 3) that will produce the target cortisol inhibition and not beyond, this while retaining clinically important anti-inflammatory and analgesic activity within the joint. […] The levels calculated in Table 3 were purely hypothetical calculations based on human data with immediate release-level doses from the literature. […] A given level of plasma concentration may actually provide less inhibition that would have been predicted or calculated using the human IR levels from the literature. […]

The conditions of data set [3]: TCA in rat plasma, i.v. 50 mg/kg bolus + 23 mg/kg/h infusion, cited from earlier work.
The subject of data set [4] is HPA axis (corticosterone levels). Kind of data set: Inhibition of the HPA axis (corticosterone levels) in rats, PK-PD analysis. Format: in vivo. To be noted: rat, PK-PD inhibitory model.
Data set [5] deals with rat model of osteoarthritis of the knee (PGPS). Kind of data set: Rat PGPS model of osteoarthritis of the knee: histopathology of the knees. Format: in vivo. As to conditions: inflammatory milieu. How it is done: Efficacy of single intra-articular (IA) doses of FX006 (TCA in 75:25 PLGA formulation microparticles) and TCA IR (immediate release) was evaluated in a rat model of osteoarthritis of the knee via sensitization and challenge by peptidoglycan polysaccharide (PGPS). The model involves priming the animals with an intra-articular injection of PGPS in the right knee. The following day, any animals with no knee discomfort were eliminated from the test article groups and placed into the baseline group. Two weeks later, knee inflammation was reactivated by a tail vein injection of PGPS, 2.5 hr following IA dosing with FX006 or TCA IR at the doses selected (n=10/group). Differences in weight-bearing and gait (as a measure of joint pain experienced by the animals), histopathology, plasma PK etc. were evaluated.

As to `CC(C)(C)CC(=O)OCC(=O)[C@@]12OC(C)(C)O[C@@H]1C[C@H]1[C@@H]3CCC4=CC(=O)C=C[C@]4(C)[C@@]3(F)[C@@H](O)C[C@@]12C` [triamcinolone hexacetonide], the plasma levels in data set [1] (20 mg intra-articular injection, day 3) was 3 to 4 ng/mL. Also, in the data set with HPA axis, the HPA-axis suppression is 75%.
For `C[C@]12C=CC(=O)C=C1CC[C@@H]1[C@@H]2[C@@H](O)C[C@@]2(C)[C@H]1CC[C@]2(O)C(=O)CO` [prednisolone, 11β,17,21-trihydroxypregna-1,4-diene-3,20-dione], the “suppression of endogenous cortisol production” value in data set [2] (oral 5 mg QD) is on record as 40%. Further, the cortisol suppression in data set [2] (oral 20 mg QD) was 73%.
On to Triamcinolone Acetonide Phosphate, for which, in data set [3] (Mean ± SD), the CL was 15.6 ± 3.13 mL/min/kg, the T1/2β is 2.71 ± 1.09 h, the Vc is 0.944 ± 0.314 L/kg and the fu was 0.093 ± 0.015. For the same compound, the k21 in data set [3] (Mean ± SD) was 0.937 ± 0.261 h^1. In addition, in data set [3] (individual rats 1-3), the CL was 19.2 mL/min/kg and 13.2 mL/min/kg and 14.5 mL/min/kg; the T1/2β is 1.55 h and 3.71 h and 2.87 h; the Vc is 0.684 L/kg and 0.856 L/kg and 1.29 L/kg; the fu is 0.084 and 0.110 and 0.085. In addition, in data set [3] (individual rats 1-3), the k12 was 1.64 h^1 and 1.79 h^1 and 1.59 h^1; the k21 was 1.04 h^1 and 0.640 h^1 and 1.13 h^1.
For `CC1(C)O[C@@H]2C[C@H]3[C@@H]4CCC5=CC(=O)C=C[C@]5(C)[C@@]4(F)[C@@H](O)C[C@]3(C)[C@]2(C(=O)CO)O1` [triamcinolone acetonide, 9α-Fluoro-11β,16α,17α,21-tetrahydroxy-1,4-pregnadiene-3,20-dione 16,17-acetonide], the “contribution of the immediate release component to the plasma concentration” value in data set [1] (40 mg immediate release, intra-articular, by day 12) is “less than 0.1 ng/ml”. Moreover, in data set [1] (40 mg immediate release, intra-articular, day 1), the peak plasma concentration result was “approximately 10 ng/ml”. Besides, the “systemic TCA level at which Emax of corticosterone inhibition was achieved” value in data set [4] lay in the range of 50 to 80 ng/mL. The IC50 in data set [4] (read-out: IC50 of corticosterone inhibition versus systemic TCA levels) was about 1 ng/mL (≈ 2.3 nM). For the same compound, the effect on cartilage result in data set [5] was “no deleterious effect on cartilage”.
